Data: US6727245B2, “Heterobicyclic derivatives” (Fujisawa Pharmaceutical Co., Ltd., priority 1994, dated 2004)

| SMILES | melting point |
| --- | --- |
| COc1ccc(-c2cccc(-n3c(=O)c(Cc4cccnc4)nc4cccnc43)c2)cc1OC1CCCC1 [Example 54(27), 4-[3-(3-Cyclopentyloxy-4-methoxyphenyl)phenyl]-2-(3-pyridylmethyl)-3-oxo-3,4-dihydropyrido[2,3-b]pyrazine] | 109 to 111 °C |
| COC(=O)/C=C/c1cccc(-n2c(=O)c(Cc3cccnc3)nc3cccnc32)c1 [Example 54(29), 4-[3-[ (E)-2-Methoxycarbonylvinyl]phenyl]-2-(3-pyridylmethyl)-3-oxo-3,4-dihydropyrido[2,3-b]pyrazine] | 180 to 181 °C |
| O=C(Nc1ccccc1)Nc1cccc(-n2c(=O)c(Cc3ccccc3)nc3ccc(Sc4ccccc4)nc32)c1 [Example 68(14), 2-Benzyl-6-phenylthio-4-[3-(3-phenylureido)phenyl]-3-oxo-3,4-dihydropyrido[2,3-b]pyrazine] | 183 to 185 °C |
| CCNC(=O)Nc1cccc(-c2cccc(-n3c(=O)c(Cc4cccnc4)nc4cccnc43)c2)c1 [Example 73, 4-[3-[3-(3-Ethylureido)phenyl]phenyl]-2-(3-pyridylmethyl)-3-oxo-3,4-dihydropyrido[2,3-b]pyrazine] | 257 to 258 °C |
| O=C(Nc1cccc(-c2cccc(-n3c(=O)c(Cc4cccnc4)nc4cccnc43)c2)c1)c1ccc2ccccc2c1 [Example 76(2), 4-[3-[3-(2-Naphthoylamino)phenyl]phenyl]-2-(3-pyridylmethyl)-3-oxo-3,4-dihydropyrido[2,3-b]pyrazine] | 202 to 210 °C |
| O=C(Nc1cccc(-c2cccc(-n3c(=O)c(Cc4cccnc4)nc4cccnc43)c2)c1)c1cc2ccccc2s1 [Example 76(3), 4-[3-[3-[(Benzo[b]thiophen-2-yl)carbonylamino]phenyl]phenyl]-2-(3-pyridylmethyl)-3-oxo-3,4-dihydropyrido[2,3-b]pyrazine] | 216 to 218 °C |
| O=C(Nc1cccc(-c2cccc(-n3c(=O)c(Cc4cccnc4)nc4cccnc43)c2)c1)c1cnc2ccccc2n1 [Example 76(4), 4-[3-[3-(2-Quinoxalinylcarbonylamino)phenyl]phenyl]-2-(3-pyridylmethyl)-3-oxo-3,4-dihydropyrido[2,3-b]pyrazine] | 206 to 209 °C |
| O=C(/C=C/c1ccncc1)Nc1cccc(-c2cccc(-n3c(=O)c(Cc4cccnc4)nc4cccnc43)c2)c1 [Example 76(6), 4-[3-[3-[(E)-3-(4-Pyridyl)acryloylamino]phenyl]phenyl]-2-(3-pyridylmethyl)-3-oxo-3,4-dihydropyrido[2,3-b]pyrazine] | 185 to 191 °C |
| CCOC(=O)/C=C/C(=O)Nc1cccc(-c2cccc(-n3c(=O)c(Cc4cccnc4)nc4cccnc43)c2)c1 [Example 77(3), 4-[3-[3-[(E)-3-Ethoxycarbonylacryloylamino]phenyl]phenyl]-2-(3-pyridylmethyl)-3-oxo-3,4-dihydropyrido[2,3-b]pyrazine] | 130 to 160 °C (dec.) |
| O=C(O)c1ccccc1C(=O)Nc1cccc(-c2cccc(-n3c(=O)c(Cc4cccnc4)nc4cccnc43)c2)c1 [Example 81, 4-[3-[3-(2-carboxybenzoylamino)phenyl]phenyl]-2-(3-pyridylmethyl)-3-oxo-3,4-dihydropyrido[2,3-b]pyrazine] | 150 °C (dec.) |
| O=C(O)CCC(=O)Nc1cccc(-c2cccc(-n3c(=O)c(Cc4cccnc4)nc4cccnc43)c2)c1 [Example 82(1), 4-[3-[3-(3-Carboxypropanoylamino)phenyl]phenyl]-2-(3-pyridylmethyl)-3-oxo-3,4-dihydropyrido[2,3-b]pyrazine] | 193 to 199 °C |
| O=C(/C=C(\C(=O)O)c1ccccc1)Nc1cccc(-c2cccc(-n3c(=O)c(Cc4cccnc4)nc4cccnc43)c2)c1 [Example 82(2), 4-[3-[3-[(Z)-3-Carboxy-3-phenylacryloylamino]phenyl]phenyl]-2-(3-pyridylmethyl)-3-oxo-3,4-dihydropyrido[2,3-b]pyrazine] | 189 to 198 °C (dec.) |
| O=C(Nc1cccc(-c2cccc(-n3c(=O)c(Cc4cccnc4)nc4cccnc43)c2)c1)C(F)(F)F [Example 83, 4-[3-(3-trifluoroacetylaminophenyl)phenyl]-2-(3-pyridylmethyl)-3-oxo-3,4-dihydropyrido[2,3-b]pyrazine] | 138 to 144 °C |

Next, values leading:

| melting point | SMILES |
| --- | --- |
| 193 to 197 °C | COC(=O)c1ccc2c(ccn2-c2cccc(-n3c(=O)c(Cc4cccnc4)nc4cccnc43)c2)c1 [Example 54(25), 4-[3-(5-Methoxycarbonylindol-1-yl)phenyl]-2-(3-pyridylmethyl)-3-oxo-3,4-dihydropyrido[2,3-b]pyrazine] |
| 237 °C | O=c1c(Cc2cccnc2)nc2cccnc2n1-c1cccc(-c2cnc3ccccc3c2)c1 [Example 54(26), 4-[3-(3-Quinolyl)phenyl]-2-(3-pyridylmethyl)-3-oxo-3,4-dihydropyrido[2,3-b]pyrazine] |
| 179 to 181 °C | COC(=O)c1cccc(-c2cccc(-n3c(=O)c(Cc4cccnc4)nc4cccnc43)c2)c1 [Example 54(28), 4-[3-(3-Methoxycarbonylphenyl)phenyl]-2-(3-pyridylmethyl)-3-oxo-3,4-dihydropyrido[2,3-b]pyrazine] |
| 157 to 163 °C | O=c1c(Cc2cccnc2)nc2cccnc2n1-c1cccc(-c2cncc3ccccc23)c1 [Example 54(30), 4-[3-(4-Isoquinolyl)phenyl]-2-(3-pyridylmethyl)-3-oxo-3,4-dihydropyrido[2,3-b]pyrazine] |
| 188 to 194 °C | CC(=O)Nc1cccc(-c2cccc(-n3c(=O)c(Cc4cccnc4)nc4cccnc43)c2)c1 [Example 54(31), 4-[3-(3-Acetamidophenyl)phenyl]-2-(3-pyridylmethyl)-3-oxo-3,4-dihydropyrido[2,3-b]pyrazine] |
| 199 to 211 °C | O=c1c(Cc2ccccc2)nc2cccnc2n1-c1cccc(NS(=O)(=O)c2ccccc2)c1 [Example 68(13), 2-Benzyl-4-(3-phenylsulfonylaminophenyl)-3-oxo-3,4-dihydropyrido[2,3-b]pyrazine] |
| 169 to 170 °C | O=c1c(Cc2ccccc2)nc2cccnc2n1-c1cccc(-n2cccc2)c1 [Example 68(15), 2-Benzyl-4-[3-(pyrrol-1-yl)phenyl]-3-oxo-3,4-dihydropyrido[2,3-b]pyrazine] |
| 263 °C | O=c1c(Cc2ccc(O)cc2)nc2cccnc2n1-c1cccc(-n2cccc2)c1 [Example 68(16), 2-(4-Hydroxybenzyl)-4-[3-(pyrrol-1-yl)phenyl]-3-oxo-3,4-dihydropyrido[2,3-b]pyrazine] |
| 190 to 191 °C | COC(=O)c1cccn1-c1cccc(-n2c(=O)c(Cc3ccccc3)nc3cccnc32)c1 [Example 68(17), 2-Benzyl-4-[3-(2-methoxycarbonylpyrrol-1-yl)phenyl]-3-oxo-3,4-dihydropyrido[2,3-b]pyrazine] |
| 248 to 252 °C | CNC(=O)Nc1cccc(-c2cccc(-n3c(=O)c(Cc4cccnc4)nc4cccnc43)c2)c1 [Example 72, 4-[3-[3-(3-Methylureido)phenyl]phenyl]-2-(3-pyridylmethyl)-3-oxo-3,4-dihydropyrido[2,3-b]pyrazine] |
| 234 °C | O=C(Nc1ccccc1)Nc1cccc(-c2cccc(-n3c(=O)c(Cc4cccnc4)nc4cccnc43)c2)c1 [Example 74, 4-[3-[3-(3-Phenylureido)phenyl]phenyl]-2-(3-pyridylmethyl)-3-oxo-3,4-dihydropyrido[2,3-b]pyrazine] |
| 202 to 204 °C | Nc1cccc(-c2cccc(-n3c(=O)c(Cc4cccnc4)nc4cccnc43)c2)c1 [Example 75, 4-[3-(3-Aminophenyl)phenyl]-2-(3-pyridylmethyl)-3-oxo-3,4-dihydropyrido[2,3-b]pyrazine] |
| 223 to 224 °C | CCC(=O)Nc1cccc(-c2cccc(-n3c(=O)c(Cc4cccnc4)nc4cccnc43)c2)c1 [Example 76(5), 4-[3-(3-Propionylaminophenyl)phenyl]-2-(3-pyridylmethyl)-3-oxo-3,4-dihydropyrido[2,3-b]pyrazine] |
| 90 °C (dec.) | O=c1c(Cc2ccccc2)nc2cccnc2n1-c1cccc(-n2c(Br)ccc2Br)c1 [Example 113, 2-Benzyl-4-[3-(2,5-dibromopyrrol-1-yl)phenyl]-3-oxo-3,4-dihydropyrido[2,3-b]pyrazine] |
